Results published in US10035780B2, “Quinazoline scaffold based compounds, pharmaceutical compositions and methods of use thereof” (TECHNION RESEARCH & DEVELOPMENT FOUNDATION LTD., priority 2014, dated 2018).
Entries after “also recorded” stand apart in the source; their conditions may differ. Read-outs that look alike come from different tables or passages of the source.

Tests used:
U118MG cells = assay: ROS generation at mitochondrial levels induced by glutamate (NAO dye); format: cell-based, human
Excerpt: Techniques and parameters assayed are summarized here: Total protein levels (Bradford. Anal Biochem. 1976; 72:248-54); TSPO ligand binding assays (Kugler et al. 2008; Levin et al. 2005; Danovich et al. Eur Neuropsychopharmacol. 2008; 18:24-33) cell death, including apoptosis and necrosis and related molecular biological processes (Soustiel et al. Neuropathol Appl Neurobiol. 2008; 34:412-23; Soustiel et al. Exp Neurol. 2008; 214:201-8; Zeno et al. 2009); mitochondrial transmembrane potential collapse (Chelli et al. Biochem Pharmacol. 2004; 68:125-34; Kugler et al. 2008; Zeno et al., 2009; Shargorodsky et al. Apoptosis. 2012; 17:647-65), reactive oxygen species (ROS) generation as a measure of oxidative stress (Veenman et al. 2008; Zeno et al. 2009); TSPO knockdown (Levin et al. 2005; Zeno et al. 2009); expression levels of mitochondrial TSPO and associated proteins (Veenman et al. 2002; Levin et al. 2005; Veenman et al. 2008); gene expression with RT-PCR and microarray analysis (Bode et al. 2012; Veenman et al. 2012). Parameters of inflammation, immune response, migration, and the cell cycle are also tested. All these approaches can also be applied for quality control of the compounds.
Next, the fluorescent dye 10-N-Nonyl-Acridine Orange (NAO) was applied to measure reactive oxygen species (ROS) generation at mitochondrial levels. […]

[1] = Pharmacokinetic properties in the mouse after i.p. administration; format: in vivo
R6-2 mice [2] = assay: Lifespan of R6-2 mice, transgenic model for Huntington Disease; format: in vivo, mouse; details: daily s.c. injections 5 days a week from week 5, vs DMSO and saline
Excerpt: For the assays described herein systemic injections of kainic in rats were applied and also contusion (Veenman et al. 2002; Soustiel et al. Neuropathol Appl Neurobiol. 2008; Soustiel et al. Exp Neurol. 2008). These models present very well defined cell death in the brain. Cell death in the brain is the major pathological characteristic of progressing neurodegeneration common to brain diseases. As the compounds of the present invention are designed to prevent cell death in the brain as a consequence of disease and progressing brain damage after injury, including behavioral impairments, animal models displaying cell death in the brain are the models of choice for displaying the protective capabilities of the compounds of the invention. For these reasons the R6-2 model for Huntington Disease was chosen to test the effectiveness of Compound 1 and to compare the effectiveness of Compound 1 with those of the compound of U.S. Pat. No. 8,541,428 (Cpd A) and with the classical TSPO ligand PK 11195, as well as other compounds disclosed herein. Compounds 5 and 6 were also tested in the same R6-2 model.
(§1) R6-2 is a transgenic mouse model for Huntington Disease. Huntington Disease in humans is a hereditary neurodegenerative disease affecting motor performance and finally leading to death of the patients having the disease. R6-2 mice (˜120 CAG repeats B6CBA-Tg(HDexon1)62 Gpb/3J) mice were used for the experiments described below. For this purpose, mice obtained from the Jackson Laboratory (ME) were bred. In particular: males genotype: Hemizygous for Tg(HDexon1)62 Gpb, and females from the wildtype background strain B6CBAF1/J were bred according to the protocol of Jackson Laboratory. The male heterozygote offspring (R6-2 mice) were used for determining life span and motor activity, with and without drug treatment. Drug treatment consisted of daily (5 continuous days a week) subcutaneous injections of mice with 20 μl of: saline (sham control), vehicle DMSO (vehicle control), classic TSPO ligand PK 11195 (15 mg/kg), prior art Compound A (15 mg/kg), Compound 1 (15 mg/kg), and compound 1 (7.5 mg/kg). Drug treatment started on week 5 after birth. Quantities were used according to previous studies regarding TSPO ligands.
Apart from the behavioral experiments, mice were observed daily, and the day of death was noted. Behavioral experiments included distance covered in an open field apparatus, and tremor measurements.
R6-2 mice were used as previously described in Example 5. In one experiment, treatment consisted of daily (5 continuous days per week) subcutaneous injections of mice with 20 μl of vehicle DMSO (control, n=10) and Compound 6 (7.5 mg/kg, n=12). In a separate experiment, compound 5 (7.5 mg/kg, n=5) was tested, compared to DMSO control (n=5).

R6-2 mice [3] = format: in vivo; details: chronic s.c. treatment
Excerpt: as §1, with “ligands. […]” for “ligands.”
FIG. 6. […] In particular, from week 9, when the first mice death occurred, until week 16, when all mice were dead, average distance covered in an open field, per session, per experimental group, per week was measured in cm. […]

## CCN(C)C(=O)Oc1nc(-c2ccccc2)nc2ccccc12 [Compound 1, 2-phenylquinazolin-4-yl ethyl(methyl)carbamate]
U118MG cells
  ROS generation at mitochondrial levels induced by glutamate: prevents ROS generation
U118MG cells; listed as Cpd 1
  ROS generation at mitochondrial levels induced by glutamate: attenuated
[1]
  distribution to the brain: quite quickly distributed to the brain
[1]; brain, ip, read-out: Uptake ratio to the brain
  Kp: 0.2
[1]; in vivo, ip
  half-life: 3.5 h
R6-2 mice [2]
  effect on lifespan: increases average lifespan; also recorded: extends the life span
R6-2 mice [2]; listed as compound 1
  effect on lifespan: enhanced lifespan
R6-2 mice [3]
  adverse effects: No adverse effects
